biological target: T1, Recombinant human liver GK1 (GST-GK) (Homo sapiens, UniProt P35557); assay: In vitro glucokinase activity, G6PDH-coupled spectrophotometric assay; type: biochemical; details: 5 mM D-glucose, 30° C., pH 7.1
T1 construct: made in house; host or cells: E. coli
T1 sequence (P35557 1-466 isoform P35557-2): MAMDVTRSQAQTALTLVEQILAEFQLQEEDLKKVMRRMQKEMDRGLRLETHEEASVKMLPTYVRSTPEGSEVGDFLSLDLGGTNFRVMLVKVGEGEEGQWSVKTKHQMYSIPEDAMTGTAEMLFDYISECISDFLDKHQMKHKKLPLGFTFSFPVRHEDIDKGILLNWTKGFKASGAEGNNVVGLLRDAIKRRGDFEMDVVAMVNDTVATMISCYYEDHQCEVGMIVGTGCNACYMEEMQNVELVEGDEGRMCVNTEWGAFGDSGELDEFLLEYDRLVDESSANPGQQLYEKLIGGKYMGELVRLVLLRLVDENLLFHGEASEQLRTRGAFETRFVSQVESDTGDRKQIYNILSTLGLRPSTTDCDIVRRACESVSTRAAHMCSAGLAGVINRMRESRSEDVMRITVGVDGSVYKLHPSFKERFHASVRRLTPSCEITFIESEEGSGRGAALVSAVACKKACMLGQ
Outline: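 GST-fused human liver GK1 from E. coli, run at 30° C. in pH 7.1 HEPES with 5 mM glucose, 1 mM ATP and 10% DMSO, coupled via G6PDH to NADH. OD340 rate measured after enzyme start; SC1.5 is the activator concentration raising activity 50% over DMSO control.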

Row | Structure (SMILES) | SC1.5 (concentration of activator that produced a 50% increase in the activity of GK) [µM]
1 | N#Cc1ccc2c(c1)N(C(CC1CCCC1)C(=O)Nc1ccccn1)C(=O)C2 (centres unmarked) [Example 137, 2-(6-Cyano-2-oxo-2,3-dihydro-indol-1-yl)-3-cyclopentyl-N-pyridin-2-yl-propionamide] | 1.91
2 | Cn1ccc(NC(=O)C(CC2CCCC2)N2C(=O)Cc3c(Cl)cccc32)n1 (centres unmarked) [Example 23, 2-(4-Chloro-2-oxo-2,3-dihydro-indol-1-yl)-3-cyclopentyl-N-(1-methyl-1H-pyrazol-3-yl)-propionamide] | 7.4
3 | COc1ccc2c(c1)CC(=O)N2C(CC1CCCC1)C(=O)Nc1cnccn1 (centres unmarked) [Example 52, 3-Cyclopentyl-2-(5-methoxy-2-oxo-2,3-dihydro-indol-1-yl)-N-pyrazin-2-yl-propionamide] | 4.76
4 | CC(C)CC(C(=O)Nc1ccn(C)n1)N1C(=O)Cc2ccc(Cl)cc21 (centres unmarked) [Example 116, 2-(6-Chloro-2-oxo-2,3-dihydro-indol-1-yl)-4-methyl-pentanoic acid (1-methyl-1H-pyrazol-3-yl)-amide] | 7.27
5 | CC(C)CC(C(=O)Nc1ccn(C)n1)N1C(=O)C(=O)c2ccc(Cl)cc21 (centres unmarked) [Example 111, 2-(6-Chloro-2,3-dioxo-2,3-dihydro-indol-1-yl)-4-methyl-pentanoic acid (1-methyl-1H-pyrazol-3-yl)-amide] | 15.93
6 | O=C(Nc1cnccn1)C(CC1CCCC1)N1C(=O)Cc2ccc(F)cc21 (centres unmarked) [Example 128, 3-Cyclopentyl-2-(6-fluoro-2-oxo-2,3-dihydro-indol-1-yl)-N-pyrazin-2-yl-propionamide] | 0.81
7 | Cn1ccc(NC(=O)C(CC2CCCC2)N2C(=O)Cc3ccccc32)n1 (centres unmarked) [Example 7, 3-Cyclopentyl-N-(1-methyl-1H-pyrazol-3-yl)-2-(2-oxo-2,3-dihydro-indol-1-yl)-propionamide] | 17.55
8 | Cc1ccc2c(c1)C(=O)C(=O)N2C(CC1CCCC1)C(=O)Nc1nccs1 (centres unmarked) [Example 79, 3-Cyclopentyl-2-(5-methyl-2,3-dioxo-2,3-dihydro-indol-1-yl)-N-thiazol-2-yl-propionamide] | 16.22
9 | COc1ccc2c(c1)CC(=O)N2C(CC(C)C)C(=O)Nc1nccs1 (centres unmarked) [Example 56, 2-(5-Methoxy-2-oxo-2,3-dihydro-indol-1-yl)-4-methyl-pentanoic acid thiazol-2-ylamide] | 22.75
10 | O=C(Nc1ccccn1)C(CC1CCCC1)N1C(=O)Cc2ccc(F)cc21 (centres unmarked) [Example 127, 3-Cyclopentyl-2-(6-fluoro-2-oxo-2,3-dihydro-indol-1-yl)-N-pyridin-2-yl-propionamide] | 0.18
11 | O=C(Nc1nccs1)C(CC1CCCC1)N1C(=O)Cc2ccc(Br)cc21 (centres unmarked) [Example 134, 2-(6-Bromo-2-oxo-2,3-dihydro-indol-1-yl)-3-cyclopentyl-N-thiazol-2-yl-propionamide] | 0.19
12 | O=C1C(=O)N(C(CC2CCCC2)C(=O)Nc2cnccn2)c2ccccc21 (centres unmarked) [Example 1, 3-Cyclopentyl-2-(2,3-dioxo-2,3-dihydro-indol-1-yl)-N-pyrazin-2-yl-propionamide] | 18.64

same assay, conditions: @ 30 uM; 5 mM D-glucose, 30° C.

Row | Structure (SMILES) | fold induction at 30 µM
13 | COc1ccc2c(c1)C(=O)C(=O)N2C(CC(C)C)C(=O)Nc1cnccn1 (centres unmarked) [Example 53, 2-(5-Methoxy-2,3-dioxo-2,3-dihydro-indol-1-yl)-4-methyl-pentanoic acid pyrazin-2-ylamide] | 1.16
14 | COc1ccc2c(c1)C(=O)C(=O)N2C(CC(C)C)C(=O)Nc1nccs1 (centres unmarked) [Example 55, 2-(5-Methoxy-2,3-dioxo-2,3-dihydro-indol-1-yl)-4-methyl-pentanoic acid thiazol-2-ylamide] | 1.39
